{
  "source": "patent US12648919B2",
  "about": "“Anticoccidial composition comprising coumaric acid and use thereof” (CJ CHEILJEDANG CORPORATION, priority 2021, dated 2026)",
  "key": {"Eimeria tenella [1]": {"test_system": "Eimeria tenella", "assay": "Cell invasion inhibition of Eimeria tenella protozoa in MDBK cells (PCR, ITS-1 gene)", "type": "cell-based", "conditions": "for inhibition at 10 ppm: read-out: Invasion inhibition %", "experimental": "(§1) A certain amount of oocysts of each of Eimeria tenella and Eimeria acervulina was put in a tube containing glass beads and pulverized, and then to remove the crushed oocyst cell wall and other debris, internal sporocysts were purified using the percoll density gradient, and washed with PBS solution. A reagent comprising sodium taurocholic acid (Sigma aldrich, USA) and trypsin (Gibco, USA), respectively, was treated to sporocysts of Eimeria tenella, Eimeria acervulina and Eimeria maxima for excystation and they were incubated, and then they were washed with PBS solution once and protozoa were obtained.\n(§2) The protozoa of Eimeria tenella and Eimeria acervulina were obtained by the method of Example 3-1 above. Sporozoites of 2×10^5 per well were added to a well in which MDBK cells (purchased from ATCC) spread as a monolayer and each material (p-coumaric acid: sigma, CAS No. 501-98-4, and anticoccidial agents, gallic acid: sigma, CAS No. 149-91-7, salinomycin: CAS No. sigma, 53003-10-4, diclazuril: sigma, CAS No. 101831-37-2, p-coumaric acid, gallic acid and salinomycin were treated by 10 ppm, and diclazuril was treated by 1 ppm) was treated to the cells, and cultured at a temperature of 40° C. for 24 hours. The negative control group is MDBK cells infected by the protozoa, and the positive control group means a group in which gallic acid, salinomycin or diclazuril solution was incubated with the protozoa. […] After removing the cells and protozoa inside the cells through pipetting, DNA was extracted from the cells, and PCR was performed using E. tenella ITS-1 (Internal transcribed spacer-1) gene or E. acervulina ACE gene-specific primers. The sequences of the used primers were described in Table 5 below.\n(§3) Ct values before/after washing for each material were compared and corrected with the ΔCt value of the negative control group to calculate the fold change (2^−ΔCt) at each time point compared to the control group, and the invasion inhibition rate (%) of the protozoa by material treatment was calculated, and the result was shown in Table 6 and Table 7.\nBy the similar method to Example 3-2 above, 0.1% DMSO, p-coumaric acid (sigma, CAS No. 501-98-4), m-coumaric acid (sigma, 14755-02-3), and o-coumaric acid (sigma, 614-60-8) were treated at a concentration of 10 ppm, respectively, and the cell invasion inhibition rate against the Eimeria tenella protozoan was measured, and the result was shown in Table 9."}, "[2]": {"test_system": "Eimeria tenella protozoa (sporozoites)", "assay": "Direct killing effect against Eimeria tenella protozoa (sporozoites), microscopic count", "conditions": "10 ppm; death rate compared to PBS-treated negative control group", "experimental": "as §1, with “the protozoa” for “each of Eimeria tenella and Eimeria acervulina”, “tenella” for “tenella, Eimeria acervulina and Eimeria maxima”\nAfter reacting 0.1% DMSO, m-coumaric acid (sigma, 14755-02-3), Caffeic acid (sigma, 331-39-5) and Ferulic acid (sigma, 1135-24-6) with the Eimeria tenella protozoa at a concentration of 10 ppm, respectively, only alive protozoa (sporozoites) were counted through microscopic observation. Then, the death rate (%) of the protozoa when each material was treated compared to the PBS-treated negative control group was measured, and the result was shown in Table 8 below."}, "Eimeria tenella [3]": {"test_system": "Eimeria tenella", "assay": "Intracellular propagation inhibition of Eimeria tenella protozoa in MDBK cells (PCR, ITS-1 gene)", "type": "cell-based", "experimental": "as §1\nThe protozoa of Eimeria tenella were obtained by the method of Example 3-1 above. […] Each material (p-coumaric acid, and anticoccidial agents, gallic acid, salinomycin: 10 ppm and diclazuril: 1 ppm) to the cells, and further cultured at a temperature of 40° C. for 24 hours.\nThe negative control group is MDBK cells infected by the protozoa, and the positive control group means a group in which salinomycin, gallic acid, or diclazuril solution was incubated with the protozoa. After removing the cells and protozoa inside the cells through pipetting, DNA was extracted from the cells using DNA extract kit (iNtRON Biotechnology), and PCR was performed using E. tenella ITS-1 (Internal transcribed spacer-1) gene-specific primers. The sequences of the used primers were described in Table 5 above. Ct values before/after washing for each material were compared and corrected with the ΔCt value of the negative control group to calculate the fold change (2^−ΔCt) at each time point compared to the control group, and the invasion inhibition rate (%) of the protozoa by material treatment was calculated, and the result was shown in Table 6 above."}, "Eimeria acervulina": {"test_system": "Eimeria acervulina", "assay": "Cell invasion inhibition of Eimeria acervulina protozoa in MDBK cells (PCR, ACE gene)", "type": "cell-based", "conditions": "40° C., 24 hours, p-coumaric acid, gallic acid, salinomycin 10 ppm, diclazuril 1 ppm", "experimental": "as §1, §2, §3"}, "Eimeria tenella [4]": {"test_system": "Eimeria tenella", "assay": "In vivo anticoccidial efficacy in broilers challenge-inoculated with Eimeria tenella oocysts (anticoccidial index)", "design": "species or system Ross broilers", "conditions": "in feed: salinomycin 60 ppm, VantiPEARL 125 ppm, p-coumaric acid 125 ppm; for Oocyst excretion amount: feces of 6-9th day of challenge inoculation, McMaster chamber; for ADG after challenge inoculation: before challenge to 7th day after challenge, 10,000 oocysts oral/broiler; for Oocyst index: index 0/5/10/20/40 from oocyst excretion % compared to infected negative control group; for Appendix lesion index: lesion score x 10; for ACI (anticoccidial index): out of 200 points, Equation 2; for Appendix lesion score: scale 0-4, 9th day after challenge inoculation; for Survival rate: up to the 8th day after challenge inoculation", "experimental": "An in vivo efficacy evaluation test was performed in an exclusive broiler animal experiment facility in U.S. One-day-old female Ross broilers were individually weighed and randomly divided into groups to use in an experiment.\nFor the feed, Korea Feed A1-choi product was used, and each material (salinomycin (Cheil Bio Cheilsalino-60 product), VantiPEAL (Kemin, Cozante, key substance: Gallic acid), p-coumaric acid (CAS No. 501-98-4; sigma)) was added to the feed, respectively, at a concentration described in Table 3 below to be self-mixed. Antibiotics and supplements were not used in general feed and mixed feed, and no anticoccidial agent other than each material was added. Broilers were fed ad libitum throughout the experiment period.\nCoccidiosis induction was performed by oral inoculation (challenge inoculation) in an oral tube type of 10,000 oocysts with over 90% mature (sporulation) Eimeria tenella per one individual to 14-day-old broilers.\nThe feed formulation administered to the control group (negative control group or positive control group) and test group and whether coccidiosis was induced by Eimeria tenella were described in Table 3 below. 6 1-day-old broilers were put in a cage randomly arranged for each test group, and after 14 days of feeding the general feed, the formulated feed prepared above was divided into each control group or test group and ingested.\nThe anticoccidial efficacy by test group designed in Example 1-2 above was shown as an anticoccidial index (ACI), and the anticoccidial index was calculated by Equation 2 below. The ACI score is out of 200 points, and the higher the ACI score, the more excellent the anticoccidial ability, and when it is 120 points or more to less than 140 points, it is determined that it is effective as an anticoccidial material, and when it is 140 points or more to less than 160 points, it is determined that it is excellent as an anticoccidial material, and when it is 160 points or more, it is determined that the anticoccidial effect is very excellent. (Luis Miguel De Pablos et al., Anticoccidial activity of maslinic acid against infection with Eimeria tenella in chickens, Parasitol Res, 2010) Anticoccidial index (ACI)=(survival rate after challenge inoculation (%))+(daily weight gain compared to negative control group (RWG, %))−(lesion score×10)−(fecal oocyst excretion amount index) (Equation 2)\n1) Survival rate: the number of dead individuals was recorded daily, and post mortem autopsy was performed to determine a cause of mortality, and the number of individuals who died due to causes other than coccidiosis was excluded. The survival rate (%) up to the 8th day after challenge inoculation was used for anticoccidial index calculation.\n2) Daily weight gain: body weight was measured for each cage before challenge inoculation with a protozoan into an individual and at the 7th day after challenge inoculation, and the difference was divided by the number of days to calculate the daily weight gain (ADG, g/d). ‘Daily weight gain compared to the negative control group (RWG, %)’ which was calculated by dividing the daily weight gain (ADG, average daily gain: g/d) of each experimental group by the weight gain (ADG, g/d) of the non-infected negative control group and multiplying by 100 was used for anticoccidial index calculation.\n3) Lesion scoring: On the 9th day after challenge inoculation, an autopsy was conducted for 4 broilers per cage, and the intestines were incised and opened. Scoring was performed for each coccidial lesion in the appendix region of the broilers. The lesion scoring method was performed by referring to Johnson J K & Reid W M (1970) document (Joyce Johnson, W. Malcolm Reid, Anticoccidial drugs: Lesion scoring techniques in battery and floor-pen experiments with chickens, Experimental parasitology, 1970). […]"}, "[5]": {"conditions": "Eimeria tenella, Example 4-2, MDBK cells, 10 ppm"}, "[6]": {"conditions": "Example 3-2, MDBK cells, 40° C., 24 hours, p-coumaric acid, gallic acid, salinomycin 10 ppm, diclazuril 1 ppm"}, "[7]": {"conditions": "MDBK cells, material added after 24 h invasion and washing, further 24 hours at 40° C., p-coumaric acid, gallic acid, salinomycin 10 ppm, diclazuril 1 ppm"}},
  "data": [
    {"smiles": "O=C(O)/C=C/c1cccc(O)c1", "note": "[m-coumaric acid]", "values": [
      {"measurement": "inhibition at 10 ppm", "setting": "Eimeria tenella [1]; [5]", "result": 29.8, "unit": "%"},
      {"measurement": "Killed sporozoites %", "setting": "[2]", "result": 10.7, "unit": "%"}
    ]},
    {"smiles": "O=C(O)c1cc(O)c(O)c(O)c1", "note": "[Gallic acid, gallic acid]", "values": [
      {"measurement": "Invasion inhibition %", "setting": "Eimeria tenella [1]; [6]", "result": 90.1, "unit": "%"},
      {"measurement": "Propagation inhibition %", "setting": "Eimeria tenella [3]; [7]", "result": 0.0, "unit": "%"},
      {"measurement": "Invasion inhibition %", "setting": "Eimeria acervulina", "result": 60.6, "unit": "%"}
    ]},
    {"smiles": "N#CC(c1ccc(Cl)cc1)c1c(Cl)cc(-n2ncc(=O)[nH]c2=O)cc1Cl", "note": "(stereo not shown) [Diclazuril, diclazuril]", "values": [
      {"measurement": "inhibition at 1 ppm", "setting": "Eimeria tenella [1]; Eimeria tenella, Example 3-2, MDBK cells, 40° C., 24 hours, p-coumaric acid, gallic acid, salinomycin 10 ppm, diclazuril 1 ppm", "result": 6.3, "unit": "%"},
      {"measurement": "inhibition at 1 ppm", "setting": "Eimeria tenella [3]; Eimeria tenella, MDBK cells, material added after 24 h invasion and washing, further 24 hours at 40° C., p-coumaric acid, gallic acid, salinomycin 10 ppm, diclazuril 1 ppm", "result": 52.9, "unit": "%"},
      {"measurement": "inhibition at 1 ppm", "setting": "Eimeria acervulina; Eimeria acervulina", "result": 42.7, "unit": "%"}
    ]},
    {"smiles": "O=C(O)/C=C/c1ccc(O)cc1", "note": "[p-coumaric acid]", "values": [
      {"measurement": "Oocyst excretion amount", "setting": "Eimeria tenella [4]", "result": "5.7 × 10^7 Oocyst/chicken"},
      {"measurement": "RWG (daily weight gain compared to the non-infected negative control group)", "setting": "Eimeria tenella [4]", "result": 94.5, "unit": "%"},
      {"measurement": "ADG after challenge inoculation", "setting": "Eimeria tenella [4]", "result": 52, "unit": "g/day"},
      {"measurement": "Oocyst index", "setting": "Eimeria tenella [4]", "result": 10},
      {"measurement": "Appendix lesion index", "setting": "Eimeria tenella [4]", "result": 25},
      {"measurement": "ACI (anticoccidial index)", "setting": "Eimeria tenella [4]", "result": 160, "unit": "points"},
      {"measurement": "Appendix lesion score", "setting": "Eimeria tenella [4]", "result": 2.5},
      {"measurement": "Survival rate", "setting": "Eimeria tenella [4]", "result": 100, "unit": "%"},
      {"measurement": "inhibition at 10 ppm", "setting": "Eimeria tenella [1]; [5]", "result": 7.98, "unit": "%"},
      {"measurement": "Invasion inhibition %", "setting": "Eimeria tenella [1]; [6]", "result": 54.3, "unit": "%"},
      {"measurement": "Propagation inhibition %", "setting": "Eimeria tenella [3]; [7]", "result": 43.9, "unit": "%"},
      {"measurement": "Invasion inhibition %", "setting": "Eimeria acervulina", "result": 82.6, "unit": "%"}
    ]},
    {"smiles": "O=C(O)/C=C/c1ccccc1O", "note": "[o-coumaric acid]", "values": [
      {"measurement": "inhibition at 10 ppm", "setting": "Eimeria tenella [1]; [5]", "result": 39.6, "unit": "%"}
    ]},
    {"smiles": "O=C(O)/C=C/c1ccc(O)c(O)c1", "note": "[Caffeic acid]", "values": [
      {"measurement": "Killed sporozoites %", "setting": "[2]", "result": 0, "unit": "%"}
    ]},
    {"smiles": "COc1cc(/C=C/C(=O)O)ccc1O", "note": "[Ferulic acid]", "values": [
      {"measurement": "Killed sporozoites %", "setting": "[2]", "result": 0, "unit": "%"}
    ]},
    {"smiles": "CC[C@@H](C(=O)[C@@H](C)[C@@H](O)[C@H](C)[C@@H]1O[C@@H]([C@@H](CC)C(=O)O)CC[C@@H]1C)[C@H]1O[C@]2(C=C[C@@H](O)[C@]3(CC[C@@](C)([C@H]4CC[C@](O)(CC)[C@H](C)O4)O3)O2)[C@H](C)C[C@@H]1C", "note": "[Salinomycin, salinomycin]", "values": [
      {"measurement": "Oocyst excretion amount", "setting": "Eimeria tenella [4]", "result": "6.3 × 10^7 Oocyst/chicken"},
      {"measurement": "RWG (daily weight gain compared to the non-infected negative control group)", "setting": "Eimeria tenella [4]", "result": 81.8, "unit": "%"},
      {"measurement": "ADG after challenge inoculation", "setting": "Eimeria tenella [4]", "result": 45, "unit": "g/day"},
      {"measurement": "Oocyst index", "setting": "Eimeria tenella [4]", "result": 10},
      {"measurement": "Appendix lesion index", "setting": "Eimeria tenella [4]", "result": 22.7},
      {"measurement": "ACI (anticoccidial index)", "setting": "Eimeria tenella [4]", "result": 149, "unit": "points"},
      {"measurement": "Appendix lesion score", "setting": "Eimeria tenella [4]", "result": 2.27},
      {"measurement": "Survival rate", "setting": "Eimeria tenella [4]", "result": 100, "unit": "%"},
      {"measurement": "inhibition at 10 ppm", "setting": "Eimeria tenella [1]; Eimeria tenella, MDBK, 24 h", "result": 56.4, "unit": "%"},
      {"measurement": "inhibition at 10 ppm", "setting": "Eimeria tenella [3]; Eimeria tenella, MDBK, 24 h, read-out: Propagation inhibition %", "result": 34.8, "unit": "%"},
      {"measurement": "inhibition at 10 ppm", "setting": "Eimeria acervulina; Eimeria acervulina", "result": 59.4, "unit": "%"}
    ]}
  ]
}
